One series has as its target T1, Bcl-XL (Homo sapiens, UniProt Q07817, S2L).
T1 construct: with the C-terminus truncated; His6; made in house; host or cells: Escherichia coli BL21 (pLys)
Nature of the series: Fluorescence anisotropy binding and competition binding assay. The following applies: competition binding assay: BakF-BH3 2E-8 M, competitor peptide 2E-7 M, Bcl-XL 2E-8 M to 1E-6 M; 45 min, 30°C; read-out: Weighted mean Kd. The procedure:
Fluorescence Anisotropy was monitored with a Polarion Instrument (Tecan, Austria): excitation wavelength = 485 nm, emission wavelength = 535 nm. […] Anisotropy values were studied at a fixed concentration of fluoresceinated Bak BH3 molecule (2E-8 M), a fixed concentration of peptide inhibitors (2E-7 M) and increasing concentrations of Bel-XL (from 2E-8 M to 1E-6 M). Experiments were performed in 96-wells black non-binding plates (Corning), the experimental volume was always 200 µl / well. Reagents were mixed at room temperature and maintained at a constant temperature (30°C) during the measurements. Anisotropy measurements were performed at different times of incubation to assess the stability of the reactions. […]
For simple binding experiments we evaluated the Kd using a nonlinear regression analysis [NLIN SAS] to fit the Lundblad equation [38]. […]
We calculated the expected Anisotropy value solving a third degree equation obtained extending the simple binding equation to a competitive binding inhibition assay. […]
Point estimates of each equilibrium constant were evaluated using meta-analytical tools weighting each experimental result for its estimated variance. […]
Fluorescence Anisotropy (FA) is a quantitative technique to analyze the interaction of a smaller fluorescent molecule with a larger non fluorescent molecule. […]

Series [1] can be described thus: Circular dichroism, relative content of secondary structure elements. The class given is physicochemical. Set-up: key to α-Helix / β-Strands / β-Turns / Random: relative content as fraction, from CDSSTR deconvolution. The following applies: CDSSTR deconvolution. The procedure: Circular dichroism (CD) spectra in the far-UV region (190-260 nm) were collected on a Jasco J-715 spectropolarimeter using a 0.1 cm path-length cuvette. Temperature was kept at 25°C by a Peltier device. Peptide concentration was determined from the absorption of the aromatic residues at 280 nm.
Peptides solutions: Bim-BH3Y and Bim-BH3YA2Aib were suspended in water and potassium hydroxide was added up to complete solubilization. 072RB was dissolved in water. Concentration of stock solutions was about 0.1 mg/ml. For circular dichroism measurements, stock solutions were diluted in 10 mM potassium phosphate buffer, pH 7.
The relative content of secondary structure elements was calculated with the deconvolution program CDSSTR [31] (Table 2). […] 072RB has the highest helical content in the set examined here (0.30 α-helix percent).

Series [2] can be described thus: Peptides stability in medium with 10% FBS or in 100% FBS (HPLC-MS). Format: in vitro ADME. To be noted: medium (RPMI 1640) with 10% FBS, 37°C, 32 µM; calculated by linear regression. The procedure:
Compounds were added to the medium solution of serum 10% or 100% FBS at the final concentration of 32 µM. Several extraction mixtures were attempted: MeOH; MeOH with 0,1% trifluoroacetic acid (TFA); (H2O: MeOH) 1:1, 1:4, 4;1. A perchloric acid (PCA) protein precipitation protocol was also tried. […] In both cases ice-cold methanol was added to the peptide solution. The mixture was centrifuged and the resulting supernatant was then added with ice-cold methanol (alone or containing 0,1% TFA) at a 1:1 final ratio and this procedure was repeated twice. Before extraction peptides were incubated in 10% FBS or 100% FBS at 37°C and, at different incubation times (0', 6, 24 and 48 hours), a sample of 50 µl was collected to be analyzed by HPLC-MS.

Setting [3] is: relative content, 10 mM potassium phosphate buffer, pH 7, 25°C.

Structures are written as SMILES. Where a SMILES comes first, the peptide text is derived from it. [ ]: non-standard residue; d: D form. Aib = CC(C)(N)C(=O)O

T1 sequence (Q07817 1-212 S2L): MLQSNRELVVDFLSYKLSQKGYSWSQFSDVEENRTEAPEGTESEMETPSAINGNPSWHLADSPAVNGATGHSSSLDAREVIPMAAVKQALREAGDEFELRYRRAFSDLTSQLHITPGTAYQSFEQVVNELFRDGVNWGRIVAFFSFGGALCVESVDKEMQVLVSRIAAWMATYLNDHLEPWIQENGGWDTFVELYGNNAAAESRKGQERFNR

`CC[C@H](C)[C@H](NC(=O)[C@H](CCCNC(=N)N)NC(=O)[C@H](CCCNC(=N)N)NC(=O)[C@H](CC(C)C)NC(=O)[C@H](CCC(=O)O)NC(=O)[C@H](CCC(N)=O)NC(=O)C(C)(C)NC(=O)[C@@H](NC(=O)[C@H](Cc1ccc(O)cc1)NC(=O)[C@@H](NC(=O)[C@H](CCC(=O)O)NC(=O)[C@@H]1CCCN1C(=O)[C@H](CCCNC(=N)N)NC(=O)[C@H](CCSC)NC(=O)[C@@H](N)CC(=O)O)[C@@H](C)CC)[C@@H](C)CC)C(=O)NCC(=O)N[C@@H](CC(=O)O)C(=O)N[C@@H](C)C(=O)N[C@@H](Cc1ccccc1)C(=O)N[C@@H](CC(N)=O)C(=O)NC(C)(C)C(=O)N[C@@H](Cc1ccc(O)cc1)C(N)=O` [Bim-BH3YA2Aib] (H-DMRPEIYI[Aib]QELRRIGDAFN[Aib]Y-NH2; N-terminus and C-terminus assumed): the dissociation constant (Kd) at Bcl-XL came out at 12 nM. Also, the “relative content of helices” value in series [1] is given as 0.15 α-helix percent. Moreover, in series [1] (setting [3]), the Random is listed as 0.56, the α-Helix was 0.15, the β-Strands was 0.14 and the β-Turns turned out to be 0.15. Moreover, the half-life in series [2] is 99,0 h.

Values taken from EP1985629A1, “Pro-apoptotic molecules and therapeutic uses thereof” (UNIVERSITA DEGLI STUDI DI GENOVA, priority 2007, dated 2008).
